Drawing on patent US7425551B2, “Malonamide derivatives” (Hoffmann-La Roche Inc., priority 2006, dated 2008), this text covers IC50 for eleven compounds.

Broadly, the IC50 is the point on the concentration scale where inhibition reaches its midpoint.

The test addresses T1, γ-secretase (Homo sapiens, UniProt P49768).
T1 construct: uses a HEK293 membrane fraction as a source of γ-secretase; endogenous in cells; host or cells: HEK293 (microsomal membrane fraction, solubilised in 0.25% CHAPSO)
Nature of the test: in vitro assay of γ-secretase activity (HEK293 membrane fraction, recombinant APP substrate, Abeta ELISA). It counts as biochemical. The conditions noted are these: γ-secretase inhibition; HEK293 membrane fraction solubilized in 0.25% CHAPSO, recombinant human APP C-terminal 100 amino acids substrate, Abeta detected by ELISA. The text has this:
Description of 1γ-Secretase Assay The activity of test compounds can be evaluated in assays which measure the proteolytic cleavage of suitable substrates by γ-secretase activity. These can be cellular assays where e.g., a substrate of the γ-secretase is fused in its cytoplasmic domain to a transcription factor. Cells are transfected with this fusion gene and a reporter gene, e.g., firefly luciferase, which expression is enhanced by the transcription factor. Cleavage of the fused substrate by γ-secretase will lead to expression of the reporter gene which can be monitored in appropriate assays. The γ-secretase activity can also be determined in cell-free in vitro assays where e.g., a cell lysate containing the γ-secretase complex is incubated with a suitable APP-derived substrate which is cleaved to the Abeta peptides. The amount of produced peptides can be determined with specific ELISA assays. Cell lines of neuronal origin secrete Abeta peptides which can be measured with the specific ELISA assay. Treatment with compounds which inhibit γ-secretase leads to a reduction of secreted Abeta thus providing a measure of inhibition. The in vitro assay of γ-secretase activity uses a HEK293 membrane fraction as a source of γ-secretase and a recombinant APP substrate. Latter consist of the C-terminal 100 amino acids of human APP fused to a 6× Histidin tail for purification which is expressed in E. coli in a regulatable expression vector, e.g. pEt15. This recombinant protein corresponds to the truncated APP fragment which results after […] of the extracellular domain and which constitutes the γ-secretase substrate. The assay principle is described in Li Y M et al, PNAS 97(11), 6138-6143 (2000). Hek293 cells are mechanically disrupted and the microsomal fraction is isolated by differential centrifugation. The membranes are solubilized in detergent (0.25% CHAPSO) and incubated with the APP substrate. The Abeta peptides which are produced by γ-secretase cleavage of the substrate are detected by specific ELISA assays as described (Brockhaus M et al, Neuroreport 9(7), 1481-1486 (1998).

`C[C@@](O)(C(=O)NCC(F)(F)F)C(=O)N[C@@H]1C(=O)N(CCOCc2ccccc2)c2ccccc2-c2ccccc21` [Example 57, (R)—N—[(S)-5-(2-Benzyloxy-ethyl)-6-oxo-6,7-dihydro-5H-dibenzo[b,d]azepin-7-yl]-2-hydroxy-2-methyl-N′-(2,2,2-trifluoro-ethyl)-malonamide]: the 50% inhibitory concentration (IC50) was 90 nM.

Regarding `C[C@@](F)(C(=O)NCCC(F)(F)F)C(=O)N[C@@H]1C(=O)N(CCO)c2ccccc2-c2ccccc21` [Example 54, (R)-2-Fluoro-N—[(S)-5-(2-hydroxy-ethyl)-6-oxo-6,7-dihydro-5H-dibenzo[b,d]azepin-7-yl]-2-methyl-N-(3,3,3-trifluoro-propyl)-malonamide], the 50% inhibitory concentration (IC50) turned out to be 8 nM.

Consider `CC(O)(C(=O)NCC(F)(F)C(F)(F)F)C(=O)N[C@@H]1C(=O)N(CCOCc2ccccc2)c2ccccc2-c2ccccc21` (stereo partly drawn) [Example 12, N—[(S)-5-(2-Benzyloxy-ethyl)-6-oxo-6,7-dihydro-5H-dibenzo[b,d]azepin-7-yl]-2-hydroxy-2-methyl-N′-(2,2,3,3,3-pentafluoro-propyl)-malonamide], for which the half-maximal inhibitory concentration (IC50) turned out to be 10 nM.

As for `COCCN1C(=O)[C@@H](NC(=O)CC(=O)NCC(F)(F)C(F)(F)F)c2ccccc2-c2ccccc21` [Example 24, N—[(S)-5-(2-Methoxy-ethyl)-6-oxo-6,7-dihydro-5H-dibenzo[b,d]azepin-7-yl]-N′-(2,2,3,3,3-pentafluoro-propyl)-malonamide], the 50% inhibitory concentration (IC50) came out at 34 nM.

For `C[C@](F)(C(=O)NCC(F)(F)C(F)(F)F)C(=O)N[C@@H]1C(=O)N(CCO)c2ccccc2-c2ccccc21` [Example 27, (S)-2-Fluoro-N—[(S)-5-(2-hydroxy-ethyl)-6-oxo-6,7-dihydro-5H-dibenzo[b,d]azepin-7-yl]-2-methyl-N′-(2,2,3,3,3-pentafluoro-propyl)-malonamide], the 50% inhibitory concentration (IC50) is 4 nM.

For the compound `CC(F)(C(=O)NCC(F)(F)C(F)(F)F)C(=O)N[C@@H]1C(=O)N(CCOCc2ccccc2)c2ccccc2-c2ccccc21` (stereo partly drawn) [Example 13, N—[(S)-5-(2-Benzyloxy-ethyl)-6-oxo-6,7-dihydro-5H-dibenzo[b,d]azepin-7-yl]-2-fluoro-2-methyl-N′-(2,2,3,3,3-pentafluoro-propyl)-malonamide], the IC50 was found to be 10 nM.

Take `O=C(CC(=O)N[C@@H]1C(=O)N(CCOCc2ccccc2)c2ccccc2-c2ccccc21)NCC(F)(F)C(F)(F)F` [Example 7, N—[(S)-5-(2-Benzyloxy-ethyl)-6-oxo-6,7-dihydro-5H-dibenzo[b,d]azepin-7-yl]-N′-(2,2,3,3,3-pentafluoro-propyl)-malonamide]: the half-inhibitory concentration (IC50) amounted to 22 nM.

For `COCCN1C(=O)[C@@H](NC(=O)C(OC)C(=O)NCC(F)(F)C(F)(F)F)c2ccccc2-c2ccccc21` (stereo partly drawn) [Example 68, 2-Methoxy-N—[(S)-5-(2-methoxy-ethyl)-6-oxo-6,7-dihydro-5H-dibenzo[b,d]azepin-7-yl]-N′-(2,2,3,3,3-pentafluoro-propyl)-malonamide], the concentration for half-maximal inhibition (IC50) was determined as 9 nM.

As for `C[C@@](F)(C(=O)NCCC(F)(F)C(F)(F)F)C(=O)N[C@@H]1C(=O)N(CCO)c2ccccc2-c2ccccc21` [Example 42, (R)-2-Fluoro-N—[(S)-5-(2-hydroxy-ethyl)-6-oxo-6,7-dihydro-5H-dibenzo[b,d]azepin-7-yl]-2-methyl-N′-(3,3,4,4,4-pentafluoro-butyl)-malonamide], the half-inhibitory concentration (IC50) was 1 nM.

Consider `COCCN1C(=O)[C@@H](NC(=O)C(C)(C)C(=O)NCC(F)(F)C(F)(F)F)c2ccccc2-c2ccccc21` [Example 67, N—[(S)-5-(2-Methoxy-ethyl)-6-oxo-6,7-dihydro-5H-dibenzo[b,d]azepin-7-yl]-2,2-dimethyl-N′-(2,2,3,3,3-pentafluoro-propyl)-malonamide], for which the IC50 amounted to 5 nM.

For `C[C@](F)(C(=O)NCC(F)(F)C(F)(F)F)C(=O)N[C@@H]1C(=O)N(CCOCc2ccccc2)c2ccccc2-c2ccccc21` [Example 23, (S)—N—[(S)-5-(2-Benzyloxy-ethyl)-6-oxo-6,7-dihydro-5H-dibenzo[b,d]azepin-7-yl]-2-fluoro-2-methyl-N′-(2,2,3,3,3-pentafluoro-propyl)-malonamide], the concentration for half-maximal inhibition (IC50) is 16 nM.
